The results in this text go back to ChEMBL document CHEMBL5465560, “Selectivity Literature for EUbOPEN Chemogenomic Library” (2024).

A short description of assay [1]: Selectivity interaction (KinomeScan (DiscoverX)) EUB0001619a CDPK1. Conditions: at 1 µM.
The target of assay [2] is T1, Serine/threonine-protein kinase 17B (Homo sapiens) (UniProt O94768).
T1 sequence (whole entry): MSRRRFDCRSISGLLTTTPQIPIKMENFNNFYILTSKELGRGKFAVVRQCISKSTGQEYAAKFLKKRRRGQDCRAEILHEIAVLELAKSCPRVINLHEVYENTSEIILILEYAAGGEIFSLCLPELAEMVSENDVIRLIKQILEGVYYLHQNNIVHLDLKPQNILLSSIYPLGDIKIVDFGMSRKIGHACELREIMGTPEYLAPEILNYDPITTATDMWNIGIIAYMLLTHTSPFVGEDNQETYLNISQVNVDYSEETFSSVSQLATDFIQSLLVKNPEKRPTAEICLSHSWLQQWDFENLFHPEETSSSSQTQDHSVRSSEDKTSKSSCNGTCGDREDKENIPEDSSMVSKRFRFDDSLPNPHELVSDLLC
The experiment in a line: Selectivity interaction (KinomeScan (DiscoverX)) EUB0001619a STK17B. Conditions: at 1 µM.

Assay [3] addresses T2, Phosphatidylinositol 5-phosphate 4-kinase type-2 gamma (Homo sapiens) (UniProt Q8TBX8).
T2 sequence (whole entry): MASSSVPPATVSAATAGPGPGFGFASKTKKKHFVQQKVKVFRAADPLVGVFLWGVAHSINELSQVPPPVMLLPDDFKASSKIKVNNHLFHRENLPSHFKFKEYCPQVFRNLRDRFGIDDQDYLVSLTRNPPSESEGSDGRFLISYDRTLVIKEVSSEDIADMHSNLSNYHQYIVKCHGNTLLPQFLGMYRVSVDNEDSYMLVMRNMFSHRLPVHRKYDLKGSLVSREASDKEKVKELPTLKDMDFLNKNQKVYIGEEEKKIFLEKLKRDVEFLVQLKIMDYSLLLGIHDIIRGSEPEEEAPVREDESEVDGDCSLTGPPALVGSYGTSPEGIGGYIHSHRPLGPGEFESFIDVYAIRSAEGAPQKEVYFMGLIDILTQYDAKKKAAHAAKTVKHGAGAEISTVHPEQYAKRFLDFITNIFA
The experiment in a line: Selectivity interaction (KinomeScan (DiscoverX)) EUB0000695a PIP4K2C. Conditions: at 100 nM.

Assay [4] has as its target Mast/stem cell growth factor receptor Kit (Homo sapiens, UniProt P10721). The experiment in a line: Selectivity interaction (KinomeScan (DiscoverX)) EUB0000607a KIT. Conditions: at 10 µM.
Assay [5] deals with AMP-activated protein kinase (AMPK) alpha-1/beta-1/gamma-1 (Homo sapiens) (UniProt P54619+Q9Y478+Q13131). The assay can be described thus: (§1) Selectivity interaction (SelectScreen profiling (Invitrogen)) EUB0000607a PRKAA1. The class given is protein-complex assay. Particulars: at 2 µM.
For assay [6], the target named is AMPK alpha2/beta1/gamma1 (Homo sapiens) (UniProt P54646+P54619+Q9Y478). Described as §1. The class given is protein-complex assay. Particulars: at 2 µM.
Assay [7] deals with Serine/threonine-protein kinase 24 (Homo sapiens) (UniProt Q9Y6E0). The experiment in a line: Selectivity interaction (SelectScreen profiling (Invitrogen)) EUB0000607a STK24. Particulars: at 2 µM.
The target in assay [8] is Serine/threonine-protein kinase WNK1 (Homo sapiens) (UniProt Q9H4A3). The experiment in a line: Selectivity interaction (ActivX KiNativ screen (kinase selectivity in THP-1 cell lysates)) EUB0000639a WNK1. The class given is subcellular. Particulars: lysate.
The target in assay [9] is T3, Tyrosine-protein kinase TXK (Homo sapiens) (UniProt P42681).
T3 sequence (whole entry): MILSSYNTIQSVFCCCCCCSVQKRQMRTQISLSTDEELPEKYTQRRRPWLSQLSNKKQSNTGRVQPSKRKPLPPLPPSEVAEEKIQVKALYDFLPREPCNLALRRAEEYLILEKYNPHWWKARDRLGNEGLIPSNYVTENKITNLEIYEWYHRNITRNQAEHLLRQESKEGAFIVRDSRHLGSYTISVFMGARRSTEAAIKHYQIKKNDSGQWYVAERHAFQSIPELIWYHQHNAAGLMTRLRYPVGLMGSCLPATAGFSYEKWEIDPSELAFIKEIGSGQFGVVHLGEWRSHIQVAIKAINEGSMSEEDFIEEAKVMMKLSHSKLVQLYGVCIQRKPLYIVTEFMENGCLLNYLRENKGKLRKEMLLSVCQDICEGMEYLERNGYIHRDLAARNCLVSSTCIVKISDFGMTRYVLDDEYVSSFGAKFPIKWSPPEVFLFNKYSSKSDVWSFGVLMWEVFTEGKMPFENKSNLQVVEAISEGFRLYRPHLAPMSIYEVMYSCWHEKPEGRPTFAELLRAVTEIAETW
The assay can be described thus: Selectivity interaction (KinomeScan (DiscoverX)) EUB0000045b TXK.

For assay [10], the target named is Serine/threonine-protein kinase PLK3 (Homo sapiens, UniProt Q9H4B4). The experiment in a line: Selectivity interaction (ProQinase) EUB0000171b PLK3.
Assay [11] concerns Epidermal growth factor receptor (Homo sapiens), P00533 [UNDEFINED MUTATION]. The experiment in a line: Selectivity interaction (KinomeScan (DiscoverX)) EUB0001049a EGFR. Particulars: at 1 µM.
The target of assay [12] is Homeodomain-interacting protein kinase 2 (Homo sapiens, UniProt Q9H2X6). The assay can be described thus: Selectivity interaction (Upstate Kinase Profiler service (Millipore)) EUB0000056c HIPK2. Conditions: at 1 µM.
The target of assay [13] is Mitogen-activated protein kinase 9 (Homo sapiens, UniProt P45984). The experiment in a line: Selectivity interaction (Kinase panel (DSF assay)) EUB0001558a MAPK9.
The target of assay [14] is Dual specificity testis-specific protein kinase 1 (Homo sapiens) (UniProt Q15569). The assay can be described thus: Selectivity interaction (KinomeScan (DiscoverX)) EUB0000229b TESK1. Conditions: at 10 µM.
For assay [15], the target named is Calcium/calmodulin-dependent protein kinase type II subunit beta (Homo sapiens) (UniProt Q13554). The experiment in a line: Selectivity interaction (KinomeScan (DiscoverX)) EUB0000229b CAMK2B. Particulars: at 10 µM.
Calcium/calmodulin-dependent protein kinase type II subunit beta (Homo sapiens), sequence (Q13554 whole entry): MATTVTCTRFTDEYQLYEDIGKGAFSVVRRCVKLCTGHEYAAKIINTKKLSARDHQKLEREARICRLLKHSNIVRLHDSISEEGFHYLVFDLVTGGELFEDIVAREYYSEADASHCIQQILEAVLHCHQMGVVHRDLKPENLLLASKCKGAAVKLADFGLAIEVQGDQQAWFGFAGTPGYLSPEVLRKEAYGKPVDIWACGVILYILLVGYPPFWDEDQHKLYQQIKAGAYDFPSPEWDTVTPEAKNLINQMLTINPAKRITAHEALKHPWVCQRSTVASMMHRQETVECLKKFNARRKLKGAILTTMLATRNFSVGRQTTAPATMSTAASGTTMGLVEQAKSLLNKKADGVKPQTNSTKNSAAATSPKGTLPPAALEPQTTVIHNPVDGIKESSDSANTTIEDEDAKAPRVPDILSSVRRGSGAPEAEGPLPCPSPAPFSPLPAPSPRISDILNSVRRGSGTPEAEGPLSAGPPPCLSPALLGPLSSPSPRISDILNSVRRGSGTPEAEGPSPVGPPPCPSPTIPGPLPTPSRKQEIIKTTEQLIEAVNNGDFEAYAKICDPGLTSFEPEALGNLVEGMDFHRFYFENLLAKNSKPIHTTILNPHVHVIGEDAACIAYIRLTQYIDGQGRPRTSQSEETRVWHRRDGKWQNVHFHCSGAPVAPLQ

Serine/threonine-protein kinase WNK1 (Homo sapiens), sequence (Q9H4A3 whole entry, looked up): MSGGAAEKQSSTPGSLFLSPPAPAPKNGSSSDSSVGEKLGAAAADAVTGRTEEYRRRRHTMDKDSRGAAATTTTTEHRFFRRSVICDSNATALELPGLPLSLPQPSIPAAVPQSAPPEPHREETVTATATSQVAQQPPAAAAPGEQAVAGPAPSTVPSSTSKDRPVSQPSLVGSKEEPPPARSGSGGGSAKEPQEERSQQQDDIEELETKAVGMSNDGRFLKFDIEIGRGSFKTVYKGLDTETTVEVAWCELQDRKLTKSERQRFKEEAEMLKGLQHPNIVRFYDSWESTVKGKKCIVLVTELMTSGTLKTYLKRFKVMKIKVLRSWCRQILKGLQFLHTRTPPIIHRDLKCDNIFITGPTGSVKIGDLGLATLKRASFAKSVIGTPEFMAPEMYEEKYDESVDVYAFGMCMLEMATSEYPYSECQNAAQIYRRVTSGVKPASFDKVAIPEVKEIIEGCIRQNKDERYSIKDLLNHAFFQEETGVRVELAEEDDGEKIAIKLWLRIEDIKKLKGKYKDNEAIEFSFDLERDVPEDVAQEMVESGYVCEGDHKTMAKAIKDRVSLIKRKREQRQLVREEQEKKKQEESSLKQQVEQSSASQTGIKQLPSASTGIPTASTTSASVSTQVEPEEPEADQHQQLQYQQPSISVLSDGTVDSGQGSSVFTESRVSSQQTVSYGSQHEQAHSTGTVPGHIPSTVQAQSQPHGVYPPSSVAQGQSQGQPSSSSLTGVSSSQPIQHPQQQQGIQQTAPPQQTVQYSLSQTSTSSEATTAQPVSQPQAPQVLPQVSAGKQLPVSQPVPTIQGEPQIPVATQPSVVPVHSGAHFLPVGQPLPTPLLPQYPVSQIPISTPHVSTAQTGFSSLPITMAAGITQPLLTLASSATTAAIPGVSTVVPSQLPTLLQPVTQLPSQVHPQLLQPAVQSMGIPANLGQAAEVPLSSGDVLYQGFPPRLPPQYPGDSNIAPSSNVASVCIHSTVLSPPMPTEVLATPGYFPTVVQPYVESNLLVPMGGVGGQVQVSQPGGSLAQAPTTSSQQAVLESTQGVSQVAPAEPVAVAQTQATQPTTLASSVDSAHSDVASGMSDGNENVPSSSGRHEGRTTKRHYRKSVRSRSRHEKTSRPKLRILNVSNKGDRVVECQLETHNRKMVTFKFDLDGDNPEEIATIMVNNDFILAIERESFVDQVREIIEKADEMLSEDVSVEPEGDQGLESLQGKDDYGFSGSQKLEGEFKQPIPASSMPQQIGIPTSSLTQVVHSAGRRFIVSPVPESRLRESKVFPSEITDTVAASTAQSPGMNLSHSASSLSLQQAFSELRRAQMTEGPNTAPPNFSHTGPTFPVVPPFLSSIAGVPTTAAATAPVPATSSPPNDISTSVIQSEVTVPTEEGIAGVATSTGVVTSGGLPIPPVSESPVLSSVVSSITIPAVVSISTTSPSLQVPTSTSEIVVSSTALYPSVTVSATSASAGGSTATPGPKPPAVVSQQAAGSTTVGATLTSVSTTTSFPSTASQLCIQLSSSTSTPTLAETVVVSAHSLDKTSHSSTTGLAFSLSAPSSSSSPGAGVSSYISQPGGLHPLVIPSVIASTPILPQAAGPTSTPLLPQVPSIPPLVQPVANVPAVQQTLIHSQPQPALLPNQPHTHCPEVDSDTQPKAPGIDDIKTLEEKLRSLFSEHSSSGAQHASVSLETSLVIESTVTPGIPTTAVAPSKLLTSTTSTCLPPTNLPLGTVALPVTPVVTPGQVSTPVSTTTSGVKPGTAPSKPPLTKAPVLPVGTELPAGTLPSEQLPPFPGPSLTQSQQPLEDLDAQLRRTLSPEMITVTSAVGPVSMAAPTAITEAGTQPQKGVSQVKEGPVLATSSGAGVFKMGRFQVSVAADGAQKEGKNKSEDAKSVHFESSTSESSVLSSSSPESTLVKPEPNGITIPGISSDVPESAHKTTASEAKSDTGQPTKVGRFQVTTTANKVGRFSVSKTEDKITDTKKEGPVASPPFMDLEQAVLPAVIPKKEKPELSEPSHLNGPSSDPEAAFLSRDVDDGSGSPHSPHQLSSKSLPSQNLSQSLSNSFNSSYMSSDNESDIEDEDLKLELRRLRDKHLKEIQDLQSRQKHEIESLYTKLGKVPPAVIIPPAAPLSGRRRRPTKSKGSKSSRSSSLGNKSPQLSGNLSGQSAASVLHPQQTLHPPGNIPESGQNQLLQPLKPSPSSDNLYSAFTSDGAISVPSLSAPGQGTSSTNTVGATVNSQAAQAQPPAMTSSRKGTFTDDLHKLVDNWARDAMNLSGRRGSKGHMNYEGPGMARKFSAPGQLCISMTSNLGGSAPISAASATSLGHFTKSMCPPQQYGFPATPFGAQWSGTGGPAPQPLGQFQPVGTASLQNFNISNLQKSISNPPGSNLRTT
Serine/threonine-protein kinase PLK3, sequence (Q9H4B4 whole entry, looked up): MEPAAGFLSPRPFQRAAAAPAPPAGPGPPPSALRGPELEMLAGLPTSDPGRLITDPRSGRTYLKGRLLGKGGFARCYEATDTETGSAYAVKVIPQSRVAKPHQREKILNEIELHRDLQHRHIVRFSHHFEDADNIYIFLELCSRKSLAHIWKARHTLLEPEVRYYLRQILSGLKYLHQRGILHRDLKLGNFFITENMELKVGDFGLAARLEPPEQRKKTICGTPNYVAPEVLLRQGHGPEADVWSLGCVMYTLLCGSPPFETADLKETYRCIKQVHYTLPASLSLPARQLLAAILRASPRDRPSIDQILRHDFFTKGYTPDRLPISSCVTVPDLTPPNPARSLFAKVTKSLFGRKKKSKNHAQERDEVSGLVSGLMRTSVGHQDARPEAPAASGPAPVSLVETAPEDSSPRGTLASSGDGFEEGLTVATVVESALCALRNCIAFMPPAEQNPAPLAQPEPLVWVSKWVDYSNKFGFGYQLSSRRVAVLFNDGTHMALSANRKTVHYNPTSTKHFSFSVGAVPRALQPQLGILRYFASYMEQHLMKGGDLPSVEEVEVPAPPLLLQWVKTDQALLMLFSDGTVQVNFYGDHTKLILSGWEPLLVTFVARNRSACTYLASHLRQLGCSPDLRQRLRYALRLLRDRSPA
Dual specificity testis-specific protein kinase 1 (Homo sapiens), sequence (Q15569 whole entry, looked up): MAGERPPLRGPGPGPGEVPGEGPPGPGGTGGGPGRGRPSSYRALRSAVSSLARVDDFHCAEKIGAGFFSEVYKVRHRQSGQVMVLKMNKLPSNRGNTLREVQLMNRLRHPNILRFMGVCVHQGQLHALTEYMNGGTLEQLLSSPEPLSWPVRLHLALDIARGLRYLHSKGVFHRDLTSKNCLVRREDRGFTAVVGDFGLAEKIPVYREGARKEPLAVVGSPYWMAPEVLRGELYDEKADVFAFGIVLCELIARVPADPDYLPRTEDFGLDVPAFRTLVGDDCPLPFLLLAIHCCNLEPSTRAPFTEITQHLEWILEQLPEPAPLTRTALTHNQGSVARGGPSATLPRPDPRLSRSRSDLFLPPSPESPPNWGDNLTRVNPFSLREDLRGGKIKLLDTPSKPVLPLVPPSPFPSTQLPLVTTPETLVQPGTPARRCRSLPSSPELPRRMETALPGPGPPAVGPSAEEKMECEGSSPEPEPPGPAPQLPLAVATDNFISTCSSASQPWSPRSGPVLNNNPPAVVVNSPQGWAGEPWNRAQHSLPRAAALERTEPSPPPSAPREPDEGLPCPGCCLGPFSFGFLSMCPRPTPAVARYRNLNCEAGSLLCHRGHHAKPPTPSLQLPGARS
Mitogen-activated protein kinase 9, sequence (P45984 whole entry, looked up): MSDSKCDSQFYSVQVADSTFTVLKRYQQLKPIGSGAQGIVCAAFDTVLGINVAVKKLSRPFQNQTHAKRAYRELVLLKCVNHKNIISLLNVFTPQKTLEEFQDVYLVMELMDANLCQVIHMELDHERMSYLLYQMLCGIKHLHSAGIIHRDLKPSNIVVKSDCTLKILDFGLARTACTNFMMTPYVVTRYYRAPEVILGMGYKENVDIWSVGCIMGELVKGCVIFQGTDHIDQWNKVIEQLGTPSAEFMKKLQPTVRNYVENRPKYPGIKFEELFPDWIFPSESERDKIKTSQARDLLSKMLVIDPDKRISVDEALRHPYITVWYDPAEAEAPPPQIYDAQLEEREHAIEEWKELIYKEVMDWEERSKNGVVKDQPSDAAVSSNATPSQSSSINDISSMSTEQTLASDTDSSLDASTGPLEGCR

With `N#Cc1cccc(-c2c[nH]c3ncnc(N4CCOCC4)c23)c1`, the % of control came out at 78% in assay [1] and 100% in assay [2].

Regarding `Cc1cc(F)c(C(=O)Nc2cccc(-c3nncn3C(C)C)n2)cc1-n1cnc(C2CC2)c1`, the % of control in assay [3] stood at 100%.

As to `CNC(=O)Nc1ccc(-c2nc(N3CC4CCC(C3)O4)c3cnn(C4CCC5(CC4)OCCO5)c3n2)cc1`, in assay [4], the % of control was 93%. The % of inhibition is 5% in [5], 7% in assay [6] and -1% in [7].

Take `CC[C@@H]1[C@H](F)C(=O)N[C@@H]1COc1nccc2cc(C(N)=O)c(OC)cc12` [ZIMLOVISERTIB]: the % of inhibition in assay [8] (at 0.01 µM) was 10.1%; in [8] (at 0.04 µM), 23.3%; in [8] (at 0.2 µM), 9.7%; in [8] (at 1 µM), 3.1%; in [8] (at 5 µM) it was 3%.

In the case of `C=CC(=O)Nc1cc(-n2c(=O)ccc3cnc4ccc(-c5ccc(NS(C)(=O)=O)cc5)cc4c32)ccc1C`, the % of control in assay [9] (at 1 µM) came to 25%; in assay [9] (at 10 µM), 2.6%.

On to `C=CC(=O)Nc1cccc(C(=O)Nc2ccc(Nc3cc(-c4[nH]c(SC)nc4C)ccn3)cc2)c1`, for which the % of control in [10] (at 1 µM) was determined as 103%; in assay [10] (at 5 µM), 75%.

Take `COc1cc(Nc2nc(C)cc(-c3cnn4nc(OC)ccc34)n2)cc(C(F)(F)F)c1`: the % of control in assay [11] turned out to be 77%.

In the case of `Cc1ccc(-c2ccc3c(ccc4sc5c(c43)NC[C@@H](C)NC5=O)n2)cn1`, in assay [12], the % of inhibition came to 2%.

In assay [13], `CC(C)(O)[C@H](F)CN1Cc2cc(NC(=O)c3cnn4cccnc34)c(N3CCOCC3)cc2C1=O` yielded a dTM of 1.6 K.

As to `COc1cc(N(C)c2ccnc3ccc(C(F)(F)F)cc23)cc(OC)c1OC`, the % binding turned out to be 90% in assay [14] and 83% in [15].
